Test results taken from patent publication US20070128719A1, “ISOLATION AND EXPANSION OF ANIMAL CELLS IN CELL CULTURES” (TissueTech, Inc., priority 2003, published 2007).

Tests used:
human limbal explants = test: Epithelial outgrowth from human limbal explants cultured on intact AM with kinase inhibitors; assay type: cell-based; settings: 10 μM
Procedure: Human AM was provided by Bio-Tissue (Miami, Fla.) and stored at −80° C. before use. AM was devitalized by freezing and thawing and washed three times with HBSS before being fastened onto a 30 mm culture insert, Millicel-CM (which generated an insert with 23 mm diameter covered by AM), and placed in a 6 well plate (Meller, D. and Tseng S C G, Invest Ophthalmol Vis Sci., 40:878-86, 1999).
After removal of excessive sclera, iris, corneal endothelium, conjunctiva, and Tenon's capsule, the limbal ring was separated by a 7.5 mm trephine from donor human corneas. Each limbal ring was rinsed 3 times with SHEM media. The limbal ring was then exposed for 10 min to 1.2 units/ml Dispase II in Mg^2+- and Ca^2+-free HBSS at 37° C. under 95% humidity and 5% CO2. Following three rinses with SHEM medium, each limbal ring was subdivided into two halves and each half further subdivided into 6 pieces of 1×1.5×2.5 mm explants. To eliminate variations of age, sex, and race, explants from the corresponding position of the same donor cornea were selected for the control and the experimental group, respectively. An explant was placed on the center of intact AM or plastic with the epithelial side facing up and cultured in SHEM medium. The experimental group was added with the inhibitor of desired concentration, while the control group was added with the same concentration of DMSO as the vehicle which was used to dissolve each inhibitor. The culture was maintained at 37° C. under 95% humidity and 5% CO2, the medium was changed every other day, and their outgrowth was monitored daily for 17 days using an inverted phase microscope (Nikon, Japan). The outgrowth area was digitized every other day by Adobe Photoshop 5.5 and analyzed by NIH ImageJ 1.30v (NIH, Bethesda, Md.).
All experiments were performed at least in triplicate. Summary data were reported as means±S.D., compiled and analyzed by MicroSoft Excel™ (MicroSoft, Redmont, Wash.). The mean and standard deviation were calculated for each group using the appropriate version of Student's unpaired t-test. Test results were reported as two-tailed p values, where p<0.05 was considered statistically significant.

p44/42 MAPK = test: Western blot of p44/42 MAPK phosphorylation in limbal epithelial cells expanded on intact AM; assay type: cell-based, human; settings: 10 μM
[1] = test system: corneal limbal epithelial cells; test: Type IV collagen immunostaining of epithelial outgrowth from human limbal explants on denuded AM; assay type: cell-based; settings: explant on dAM in SHEM
[2] = test system: rabbit corneal limbal explant; test: Rabbit limbal explant outgrowth on type I collagen coated insert, airlift culture; assay type: cell-based; settings: SHEM
Procedure: (§1) Human limbal tissue cubes can be placed in the alternative on the center of type I collagen coated inserts and cultured in SHEM medium under submerge and airlift manners, of which the later was also added with p38 inhibitor. In the submerge manner, 4 ml culture medium was added to the culture dish to cover the entire limbal explant. In the airlift manner, 2 ml culture medium was added so as to let the insert bottom sit on the air-liquid interface. That is, the explant was exposed to air, but the remaining explant stroma was submerged in the medium meniscus. In the airlift+p38 inhibitor group, p 38 inhibitor SB 203580 was added to culture medium at a concentration of 10 μM. Cultures were incubated at 37° C. under 5% CO2 and 95% air, and the medium is changed every 2 days. Rabbit limbal explants are also cultured in the same fashion as the human tissue. Limbal tissue cubes are placed on the center of type I collagen coated inserts and cultured under airlift manner in SHEM medium with or without p38 inhibitor SB203580 for 1 week.
To study the effect of p38 inhibitor on the outgrowth epithelial sheet, rabbit corneal limbal explant is cultured on the type I collagen coated insert under the airlift manner in SHEM medium for 1 week with or without addition of p38 inhibitor (FIG. 2).

[3] = test system: limbal epithelial progenitor cells; test: K12 and K10 immunostaining of human limbal explants in airlift culture; assay type: cell-based; settings: SHEM, 2 weeks, 10 μM
Procedure: as §1
To study the effect of p38 inhibitor on the differentiation of limbal epithelial progenitor cells, human corneal limbal explants were cultured under submerge and airlift manners, of which the later was added with or without p38 inhibitor, on type I collagen coated inserts in SHEM medium for 2 weeks. […]

p38 MAPK = test: Western blot of p38 MAPK phosphorylation in limbal epithelial cells expanded on intact AM; settings: 10 μM

C[S+]([O-])c1ccc(-c2nc(-c3ccncc3)c(-c3ccc(F)cc3)[nH]2)cc1 (stereo not shown) [SB203580]
day at which epithelial outgrowth was noted / started (human limbal explants): 5 days
epithelial outgrowth (human limbal explants; limbal explant on intact AM in SHEM, up to 17 days, vs DMSO control): did not change the outgrowth
phosphorylation of p44/42 MAPK (Thr202 and Tyr204) (p44/42 MAPK): did increase
type IV collagen staining of outgrowth epithelial cells ([1]; 2 weeks): intracellular staining
type IV collagen staining of outgrowth epithelial cells ([1]; 4 weeks): strong linear band staining
outgrowth rate based on outgrowth surface area ([2]; 1 week): not inhibited
outgrowth sheet in H&E stained cross-sections ([2]; with p38 inhibitor): intact and consisted of uniformly two layers
K10 positive cells in limbal and corneal epithelium [3]: no K10 positive cells
K12 expression in the limbal epithelium [3]: restored
phosphorylation at Thr180/Tyr182 of p38 MAPK (p38 MAPK): abolished
